Measurements: PMC7893776, “Selecting an anti-malarial clinical candidate from two potent dihydroisoquinolones” (Malaria Journal, 2021)
Where “and” joins values, the source holds several entries; their conditions need not be identical. Equal entries are not always repeated. Where two headings read alike, the source gives them in different places.

Assays:
[1] = molecular target: T1, CYP2C9 (Homo sapiens, UniProt P11712); assay: CYP450 inhibition, CYP2C9; assay type: in vitro ADME; settings: for inhibition of CYP2C9: 10 µM, probe substrate Diclofenac, replicate measurements
T1 construct: purchased Cypex Ltd (Bactosomes)
Procedure: SJ733 was first pre-incubated with Bactosomes™ (Cypex Ltd, final P450 concentration: CYP1A1 25 pmol/mL, CYP1A2 100 pmol/mL,CYP1B1 100 pmol/mL, CYP2B6 100 pmol/mL, CYP2C8 50 pmol/mL, CYP2C9, 25 pmol/mL, CYP2C19 100 pmol/mL, CYP2D6 50 pmol/mL and CYP3A4 25 pmol/mL, 0.1 M phosphate buffer pH 7.4) at 37 °C prior to the addition of NADPH (final concentration 1 mM) to initiate the reaction with a final incubation volume of 50 μL. Incubations were also performed using control Bactosomes™ (no P450 enzymes present) to reveal any non-enzymatic degradation. Control compounds known to be metabolized specifically by each P450 isoform were included individually. Test articles and controls were incubated with each isoform for 0, 5, 15, 30, and 45 min. The reactions were stopped by transferring 20 μL of the reaction mixture to 60 μL methanol at the appropriate timepoints.
In an alternate approach SJ311 was studied using a validated cocktail probe substrate method. […] All samples were analyzed using LC MS/MS, with either positive atmospheric pressure chemical ionization (APCI) mode (SJ311) or ESI (SJ733) mode utilizing multiple reaction monitoring (MRM) scans.

[2] = Rat pharmacokinetics, single PO or IV dose; assay type: in vivo, male Sprague Dawley rats; settings: for fraction of the IV dose recovered in urine: 24-h sampling period; for AUC(0-inf): all dose levels 50–200 mg/kg, read-out: mean AUCinf
Excerpt: Studies were undertaken to determine the plasma pharmacokinetics of SJ733 and SJ311. These studies included: (i) single oral gavage (PO) or intravenous (IV) dose administration to female C57BL/6 mice; (ii) single PO or IV dose administration to male Sprague Dawley (SD) rats; (iii) single PO or IV dose administration to male beagle dogs; (iv) toxicokinetic (TK) study following single PO administration to male SD rats. The PO and IV formulation used for mouse studies at SJCRH was 1% hydroxypropyl-beta-cyclodextrin (w/v), 10% ethanol (v/v), 10% propylene glycol (v/v), 40% PEG-400 (v/v) and 39% PBS (pH 7.4) isotonic (v/v). Compounds were dosed orally as suspensions, and intravenously as filtered solutions. Compound concentrations were confirmed post filtration using UV spectroscopy. The IV formulation used for rat studies (Monash University) was the same as that used for mice. For PO dosing to rats (Monash University) at 2 mg/kg, a suspension formulation was used containing 0.5% (w/v) hydroxypropyl methylcellulose, 0.5% (v/v) benzyl alcohol and 0.4% (v/v) Tween 80. The formulation used for rat studies at SRI (PO, high dose) was the same as that used in mouse PK studies. The formulation for the high dose TK study at SRI was 0.5% methylcellulose in sterile water. The formulation used for dog studies was the same as that used in mouse PK studies. The PO and IV PK of SJ733 and SJ311 were studied in overnight-fasted male Sprague Dawley rats. Rats had access to water ad libitum throughout the pre- and post-dose sampling period, and access to food was re-instated 4 h post-dose. […] Once collected, blood samples were centrifuged, supernatant plasma was removed and stored frozen (− 20 °C) until LC–MS analysis within 1 week of collection. The high dose levels of both compounds (50, 100, 200 mg/kg, PO, (+)-SJ733/311) were also independently tested by SRI, with a single oral gavage administration. Blood (through jugular vein) and urine were collected at time points up to 72 and 24 h post dose, respectively. Supernatant plasma was removed following centrifugation and stored frozen (− 70 °C) until LC–MS analysis. For toxicology studies, male Sprague Dawley rats were administered 50, 100, 250, 500, or 750 mg/kg of (r)-SJ733 or (r)-SJ311 by oral gavage (one dose per animal). Body weights were recorded on Day 1 prior to dose administration and on Day 4. Blood samples (400 µL) were collected at 4 and 24 h post drug administration from the retro-orbital sinus. Potassium EDTA treated plasma was collected and kept frozen at -70 °C for bioanalytical analysis. For studies at Monash University, rat plasma and urine samples were extracted utilizing protein precipitation with a twofold volume ratio of acetonitrile. SJ733, SJ311, and diazepam (IS) were detected using LC–MS/MS instrumentation. Aliquots (3 µL) were injected onto a Waters Acquity UPLC equipped with a Waters Micromass Xevo TQ MS/MS and separated using a Supelco Ascentis Express RP Amide column (50 × 2.1 mm, 2.7 µm) with a methanol–water gradient containing 0.05% formic acid. Calibration standards were prepared by spiking blank matrix (plasma or urine) and the calibration range was from 1 to 10,000 ng/mL for plasma or 2.5 to 5000 ng/mL for urine. Plasma and urine samples from the high dose rat PK studies were analyzed by SRI. In both matrices, the sample volume was 50 μL, and assay entailed the addition of 50 μL of internal standard solution to the standards and study samples. The compounds were used as reciprocal standards for one another (427 nM SJ733 in Milli-Q-Water for SJ571311 and 437 nM SJ311 in Milli-Q-Water for SJ733). These mixtures were then extracted with 1000 μL of ethyl acetate by vortexing for 10 min on a multi-tube vortex mixer at maximum speed followed by separation of the organic and aqueous phases by centrifugation (18,000×g, 5 min). […]

[3] = male, Sprague Dawley, plasma, PO
[4] = male, Sprague Dawley, plasma, PO, read-out: terminal half-life, mean t1/2

T1 sequence (P11712 whole entry): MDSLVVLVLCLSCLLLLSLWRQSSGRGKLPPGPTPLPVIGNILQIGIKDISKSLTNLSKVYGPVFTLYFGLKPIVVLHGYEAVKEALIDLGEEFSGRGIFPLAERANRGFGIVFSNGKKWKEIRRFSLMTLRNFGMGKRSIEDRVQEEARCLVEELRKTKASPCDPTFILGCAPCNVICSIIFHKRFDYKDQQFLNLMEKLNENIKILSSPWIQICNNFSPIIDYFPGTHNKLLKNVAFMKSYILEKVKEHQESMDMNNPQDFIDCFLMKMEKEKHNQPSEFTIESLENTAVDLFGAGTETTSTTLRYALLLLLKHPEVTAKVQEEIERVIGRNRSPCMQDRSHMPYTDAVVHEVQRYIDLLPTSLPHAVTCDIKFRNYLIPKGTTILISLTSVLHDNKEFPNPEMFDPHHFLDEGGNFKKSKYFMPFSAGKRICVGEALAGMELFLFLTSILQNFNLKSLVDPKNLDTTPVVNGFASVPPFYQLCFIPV

## N#Cc1cc(NC(=O)C2c3ccccc3C(=O)N(CC(F)(F)F)C2c2cccnc2)ccc1F (racemic) [(r)-SJ733]
[1]
  inhibition of CYP2C9: 34% and 17%
[2]; in vivo, po, 19.8 mg/kg
  Tmax: 1.0 h

## N#Cc1cc(NC(=O)[C@H]2c3ccccc3C(=O)N(CC(F)(F)F)[C@@H]2c2cn[nH]c2)ccc1F [(+)-SJ311]
[2]; in vivo, po, 20.4 mg/kg
  Half life: 7.9, 7.9 h
[2]; in vivo, po, 50 mg/kg
  AUCinf: 34.1 ± 8.7 µM·h
  CL/F: 56.7 ± 16.7 mL/min/kg
  Cmax: 4.4 ± 2 µM
  F%: 20.5%
  Half life: 3.5 ± 0.4 h
  Tmax: 1.2 ± 0.8 h
  V/F: 17 ± 7.0 L/kg
[2]; in vivo, po, 100 mg/kg
  AUCinf: 61.9 ± 11.5 µM·h
  CL/F: 60 ± 12 mL/min/kg
  Cmax: 7.1 ± 0.81 µM
  F%: 18.6%
  Half life: 4.3 ± 2.2 h
  Tmax: 4 h
  V/F: 21 ± 8.0 L/kg
[2]; in vivo, po, 200 mg/kg
  AUCinf: 65.8 ± 12.6 µM·h
  CL/F: 112 ± 8.3 mL/min/kg
  Cmax: 9.4 ± 5.4 µM
  Dose in urine: 1.1 ± 0.4%
  F%: 9.9%
  Half life: 4 h
  Tmax: 3.2 ± 4.2 h
  V/F: 38 L/kg

## N#Cc1cc(NC(=O)C2c3ccccc3C(=O)N(CC(F)(F)F)C2c2cn[nH]c2)ccc1F (racemic) [(r)-SJ311]
[1]
  inhibition of CYP2C9: 19% and 15%

## N#Cc1cc(NC(=O)[C@H]2c3ccccc3C(=O)N(CC(F)(F)F)[C@@H]2c2cccnc2)ccc1F [(+)-SJ733]
[2]; in vivo, iv, 0.1 mg/kg
  AUCinf: 14.7 ± 0.7 µM·h
  CL: 11.3 ± 0.33 mL/min/kg
  Dose in urine: 1.6 ± 0.5%
  Half-life: 9.2 ± 0.4 h
  Vss: 3.3 ± 0.2 L/kg
[2]; in vivo, po, 1.7 mg/kg
  AUCinf: 1.9 ± 0.6^ c h.µM
  Cmax: 0.7 ± 0.1 µM
  Dose in urine: 0.5 ± 0.3%
  F%: 36.7 ± 12%
  Tmax: 0.7 ± 0.3 h
[2]; in vivo, po, 1.9 mg/kg
  AUCinf: 6.6 ± 1.2 µM·h
  Cmax: 0.9 ± 0.1 µM
  Dose in urine: 1.2 ± 0.4%
  F%: 111 ± 19%
  Half life: 11.3 ± 6.0 h
  Tmax: 3.0 ± 0.9 h
[2]; in vivo, po, 50 mg/kg
  AUCinf: 96.3 ± 5.8 µM·h
  CL/F: 18.3 ± 1.7 mL/min/kg
  Cmax: 11.1 ± 1.2 µM
  F%: 74.5%
  Half life: 7.7 ± 3.2 h
  Tmax: 4 h
  V/F: 12 ± 5.0 L/kg
[2]; in vivo, po, 100 mg/kg
  AUCinf: 180 ± 23.2 µM·h
  CL/F: 20 ± 1.7 mL/min/kg
  Cmax: 16.6 ± 3.2 µM
  F%: 69.6%
  Half life: 10.3 ± 6.9 h
  Tmax: 3.0 ± 1.7 h
  V/F: 17 ± 9.0 L/kg
[2]; in vivo, po, 200 mg/kg
  AUCinf: 330 ± 78.4 µM·h
  CL/F: 21.7 ± 5 mL/min/kg
  Cmax: 27.9 ± 3.8 µM
  Dose in urine: 0.2 ± 0.1%
  F%: 63.8%
  Half life: 7.7 ± 3.3 h
  Tmax: 4.0 ± 3.5 h
  V/F: 15 ± 9.0 L/kg

## N#Cc1cc(NC(=O)[C@H]2c3ccccc3C(=O)N(CC(F)(F)F)[C@@H]2c2cccnc2)ccc1F (racemic) [SJ733]
[1]
  CYP2C9 inhibition, in words: weak inhibitors
[2]; IV
  fraction of the IV dose recovered in urine: ~1.5%
[2]; male, Sprague Dawley, plasma, IV, isomers and racemate at similar doses, read-out: IV half-lives
  Half-life: 5 to 18 h
[2]; [3]
  AUC(0-inf): 96.3 to 330 µM·h
[2]; [4]
  Half-life: 7.7 to 10.3 h
[2]; male, Sprague Dawley, plasma, po, summary over the oral doses studied, read-out: Rat F (oral bioavailability)
  bioavailability: 60 to 100%
[2]; male, Sprague Dawley, plasma, read-out: measured in vivo clearance (converted)
  clearance: ~11.7 mL/min/kg
[2]; summary over the oral doses studied
  Rat F (oral bioavailability): 63-122%

## N#Cc1cc(NC(=O)[C@H]2c3ccccc3C(=O)N(CC(F)(F)F)[C@@H]2c2cn[nH]c2)ccc1F [SJ311]
[1]
  CYP2C9 inhibition, in words: weak inhibitors
[2]; IV
  fraction of the IV dose recovered in urine: ca. 22%
[2]; [3]
  AUC(0-inf): 34.1 to 65.8 µM·h
[2]; [4]
  Half-life: 3.5 to 7.9 h
